± gives the expanded uncertainty stated by the source.
Test: molar heat capacity at constant volume; xn = mol fraction of the nth substance listed
Details: x1 = 0.095

CCCCCCCCCC [decane] + O=C=O
Details | molar heat capacity at constant volume [J/K/mol]
339.76 K, Fluid (supercritical or subcritical phases), Mass density=658.8 kg/m3, Isochoric Heat Capacity Apparatus | 341.25 ± 6.8
339.76 K, Liquid, iso | 405.37 ± 8.1
339.81 K, Fluid (supercritical or subcritical phases), Mass density=658.8 kg/m3, Isochoric Heat Capacity Apparatus | 339.06 ± 6.8
340.21 K, Fluid (supercritical or subcritical phases), Mass density=658.8 kg/m3, Isochoric Heat Capacity Apparatus | 339.7 ± 6.8
340.44 K, Fluid (supercritical or subcritical phases), Mass density=658.8 kg/m3, Isochoric Heat Capacity Apparatus | 339.06 ± 6.8
341.36 K, Fluid (supercritical or subcritical phases), Mass density=658.8 kg/m3, Isochoric Heat Capacity Apparatus | 337.04 ± 6.7
342.32 K, Fluid (supercritical or subcritical phases), Mass density=658.8 kg/m3, Isochoric Heat Capacity Apparatus | 337.68 ± 6.8
348.73 K, Fluid (supercritical or subcritical phases), Mass density=658.8 kg/m3, Isochoric Heat Capacity Apparatus | 325.41 ± 6.5
352.09 K, Fluid (supercritical or subcritical phases), Mass density=622.7 kg/m3, Isochoric Heat Capacity Apparatus | 341.73 ± 6.8
352.09 K, Liquid, iso | 393.1 ± 7.8
352.5 K, Fluid (supercritical or subcritical phases), Mass density=622.7 kg/m3, Isochoric Heat Capacity Apparatus | 340.82 ± 6.8
352.9 K, Fluid (supercritical or subcritical phases), Mass density=622.7 kg/m3, Isochoric Heat Capacity Apparatus | 339.06 ± 6.8
354.63 K, Fluid (supercritical or subcritical phases), Mass density=622.7 kg/m3, Isochoric Heat Capacity Apparatus | 337.04 ± 6.7
362.18 K, Fluid (supercritical or subcritical phases), Mass density=658.8 kg/m3, Isochoric Heat Capacity Apparatus | 313.14 ± 6.2
364 K, Fluid (supercritical or subcritical phases), Mass density=622.7 kg/m3, Isochoric Heat Capacity Apparatus | 323.65 ± 6.5
368.53 K, Fluid (supercritical or subcritical phases), Mass density=574.1 kg/m3, Isochoric Heat Capacity Apparatus | 365.42 ± 7.3
368.53 K, Liquid, iso | 393.1 ± 7.8
368.83 K, Fluid (supercritical or subcritical phases), Mass density=574.1 kg/m3, Isochoric Heat Capacity Apparatus | 364.08 ± 7.3
369.77 K, Fluid (supercritical or subcritical phases), Mass density=574.1 kg/m3, Isochoric Heat Capacity Apparatus | 359.39 ± 7.2
371.23 K, Fluid (supercritical or subcritical phases), Mass density=658.8 kg/m3, Isochoric Heat Capacity Apparatus | 303.75 ± 6.1
380.81 K, Fluid (supercritical or subcritical phases), Mass density=622.7 kg/m3, Isochoric Heat Capacity Apparatus | 305.78 ± 6.1
383.81 K, Fluid (supercritical or subcritical phases), Mass density=534.8 kg/m3, Isochoric Heat Capacity Apparatus | 350.91 ± 7
384.11 K, Fluid (supercritical or subcritical phases), Mass density=534.8 kg/m3, Isochoric Heat Capacity Apparatus | 347.55 ± 6.9
385.02 K, Fluid (supercritical or subcritical phases), Mass density=574.1 kg/m3, Isochoric Heat Capacity Apparatus | 318.95 ± 6.4
385.79 K, Fluid (supercritical or subcritical phases), Mass density=534.8 kg/m3, Isochoric Heat Capacity Apparatus | 348.67 ± 7
387.65 K, Fluid (supercritical or subcritical phases), Mass density=534.8 kg/m3, Isochoric Heat Capacity Apparatus | 339.49 ± 6.8
393.22 K, Fluid (supercritical or subcritical phases), Mass density=509.4 kg/m3, Isochoric Heat Capacity Apparatus | 349.31 ± 7
393.66 K, Fluid (supercritical or subcritical phases), Mass density=622.7 kg/m3, Isochoric Heat Capacity Apparatus | 307.11 ± 6.1
394.42 K, Fluid (supercritical or subcritical phases), Mass density=509.4 kg/m3, Isochoric Heat Capacity Apparatus | 339.06 ± 6.8
395.94 K, Fluid (supercritical or subcritical phases), Mass density=509.4 kg/m3, Isochoric Heat Capacity Apparatus | 340.82 ± 6.8
397.67 K, Fluid (supercritical or subcritical phases), Mass density=498 kg/m3, Isochoric Heat Capacity Apparatus | 351.12 ± 7
397.78 K, Fluid (supercritical or subcritical phases), Mass density=574.1 kg/m3, Isochoric Heat Capacity Apparatus | 312.23 ± 6.2
398.32 K, Fluid (supercritical or subcritical phases), Mass density=498 kg/m3, Isochoric Heat Capacity Apparatus | 353.09 ± 7
399.4 K, Fluid (supercritical or subcritical phases), Mass density=498 kg/m3, Isochoric Heat Capacity Apparatus | 343.97 ± 6.9
401.33 K, Fluid (supercritical or subcritical phases), Mass density=534.8 kg/m3, Isochoric Heat Capacity Apparatus | 323.65 ± 6.5
403.37 K, Fluid (supercritical or subcritical phases), Mass density=574.1 kg/m3, Isochoric Heat Capacity Apparatus | 314.26 ± 6.3
404.76 K, Fluid (supercritical or subcritical phases), Mass density=509.4 kg/m3, Isochoric Heat Capacity Apparatus | 325.19 ± 6.5
404.98 K, Fluid (supercritical or subcritical phases), Mass density=477.6 kg/m3, Isochoric Heat Capacity Apparatus | 347.33 ± 6.9
405.41 K, Fluid (supercritical or subcritical phases), Mass density=477.6 kg/m3, Isochoric Heat Capacity Apparatus | 344.18 ± 6.9
406.9 K, Fluid (supercritical or subcritical phases), Mass density=534.8 kg/m3, Isochoric Heat Capacity Apparatus | 319.59 ± 6.4
407.33 K, Fluid (supercritical or subcritical phases), Mass density=477.6 kg/m3, Isochoric Heat Capacity Apparatus | 339.28 ± 6.8
410.31 K, Fluid (supercritical or subcritical phases), Mass density=509.4 kg/m3, Isochoric Heat Capacity Apparatus | 327.43 ± 6.6
410.94 K, Fluid (supercritical or subcritical phases), Mass density=498 kg/m3, Isochoric Heat Capacity Apparatus | 327.01 ± 6.6
411.47 K, Fluid (supercritical or subcritical phases), Mass density=574.1 kg/m3, Isochoric Heat Capacity Apparatus | 311.32 ± 6.2
416.01 K, Fluid (supercritical or subcritical phases), Mass density=477.6 kg/m3, Isochoric Heat Capacity Apparatus | 330.31 ± 6.6
416.64 K, Fluid (supercritical or subcritical phases), Mass density=509.4 kg/m3, Isochoric Heat Capacity Apparatus | 321.62 ± 6.5
422.51 K, Fluid (supercritical or subcritical phases), Mass density=498 kg/m3, Isochoric Heat Capacity Apparatus | 321.62 ± 6.5
423.55 K, Fluid (supercritical or subcritical phases), Mass density=509.4 kg/m3, Isochoric Heat Capacity Apparatus | 319.59 ± 6.4
428.94 K, Fluid (supercritical or subcritical phases), Mass density=477.6 kg/m3, Isochoric Heat Capacity Apparatus | 321.41 ± 6.5
432.24 K, Fluid (supercritical or subcritical phases), Mass density=509.4 kg/m3, Isochoric Heat Capacity Apparatus | 320.07 ± 6.4
434.61 K, Fluid (supercritical or subcritical phases), Mass density=398.3 kg/m3, Isochoric Heat Capacity Apparatus | 344.61 ± 6.9
434.91 K, Fluid (supercritical or subcritical phases), Mass density=398.3 kg/m3, Isochoric Heat Capacity Apparatus | 342.64 ± 6.8
436.96 K, Fluid (supercritical or subcritical phases), Mass density=398.3 kg/m3, Isochoric Heat Capacity Apparatus | 343.06 ± 6.9
437.68 K, Fluid (supercritical or subcritical phases), Mass density=498 kg/m3, Isochoric Heat Capacity Apparatus | 321.19 ± 6.4
438.19 K, Fluid (supercritical or subcritical phases), Mass density=509.4 kg/m3, Isochoric Heat Capacity Apparatus | 318.05 ± 6.3
440.43 K, Fluid (supercritical or subcritical phases), Mass density=534.8 kg/m3, Isochoric Heat Capacity Apparatus | 316.28 ± 6.3
442.03 K, Fluid (supercritical or subcritical phases), Mass density=534.8 kg/m3, Isochoric Heat Capacity Apparatus | 316.5 ± 6.3
442.05 K, Fluid (supercritical or subcritical phases), Mass density=498 kg/m3, Isochoric Heat Capacity Apparatus | 321.19 ± 6.4
442.66 K, Fluid (supercritical or subcritical phases), Mass density=477.6 kg/m3, Isochoric Heat Capacity Apparatus | 322.31 ± 6.5
442.88 K, Fluid (supercritical or subcritical phases), Mass density=498 kg/m3, Isochoric Heat Capacity Apparatus | 321.19 ± 6.4
